Measurements reported in patent US10227331B2 (priority 2015, dated 2019).

Assays:
[1] = target: VIM-1 (Pseudomonas aeruginosa (strain ATCC 15692 / DSM 22644 / CIP 104116 / JCM 14847 / LMG 12228 / 1C / PRS 101 / PAO1), UniProt A0A0F7KYQ8); assay: biochemical; conditions: CCF2-FA substrate, 2 hours at 25° C
Procedure: (§1) Enzyme Activity: Determination of IC50
(§2) The Class B enzyme activities were measured in the presence of the test inhibitor in a fluorescence assay against a commercially available substrate consisting of a cephalosporin core linking 7-hydroxycoumarin to fluorescein (CCF2-FA). […] In a 384-well microplate, the test inhibitor was incubated with the metallo-β-lactamase enzyme and the substrate for 2 hours at 25° C. […] The IC50 value was determined from semi-logarithmic plots of enzyme inhibition versus inhibitor concentration, with a curve generated using a 4-parameter fit.

[2] = system: P. aeruginosa expressing IMP-1, efflux+ (MB9798); format: cell-based, Pseudomonas aeruginosa; conditions: for P. aeruginosa expressing IMP-1, efflux+ (MB9798) MITC95: imipenem at 2 μg/mL, in the presence of a class A, C, D serine β-lactamase inhibitor closely related to relebactam; for Efflux ratio: ratio MITC95 PA_9798/MITC95 PA_9799
Description: (§3) The strain background is Pseudomonas aeruginosa PAO1.

[3] = system: P. aeruginosa expressing IMP-1, efflux− (MB9799); assay: Efflux: concentration of MBL inhibitor which restores susceptibility to imipenem; format: cell-based, Pseudomonas aeruginosa; conditions: imipenem at 2 μg/mL, in the presence of a class A, C, D serine β-lactamase inhibitor closely related to relebactam
Description: as §3

[4] = system: Klebsiella pneumoniae expressing VIM-1 (IHMA599644); format: cell-based; conditions: with imipenem 1 μg/ml, 95% inhibition of bacterial growth; for Klebsiella pneumoniae MITC95: VIM-1 (IHMA599644)
Procedure: (§4) Antibiotic Potentiation Activity: Determination of Synergistic Concentration
(§5) The bacterial strains tested included the clinical strains Escherichia coli expressing NDM-1 (CLB30005, CLB30016), Serratia marcescens expressing IMP-1 (CL5741), and Klebsiella pneumoniae expressing VIM-1 (IHMA599644). Inhibitor activity was measured in the presence and absence of imipenem in a 384-well microplate.
(§6) The clinical strains CLB30016, CL5741 and IHMA599644 were grown on trypticase soy agar containing 5% sheep's blood. The bacteria on agar plates were incubated at 35° C. with humidity overnight. The following day, individual colonies from each clinical strain were picked and resuspended in 5 ml saline to attain an OD600 of […], for CLB30016, CL5741 and IHMA599644, respectively. These were further diluted 1:100 into 1.1×CAMHB and used to inoculate the test wells as described below.
(§7) Imipenem in 10 mM 3-(N-morpholino)propanesulfonic acid (MOPS, pH 7) was stored in single use aliquots at −80° C. […] On the day of the assay, 4 μl of antibiotic was added to 45 ul of bacteria followed by 1 μl of test compound and mixed by pipetting and with an orbital shaker. The concentration of antibiotic used in the assay was 1 μg/ml. Microplates were covered and incubated at 35° C. for 22 hours to 24 hours. At the end of the incubation, absorbance was determined using a spectrophotometer.
(§8) For example, in general, the compounds of Examples 1-379 were determined to restore susceptibility to imipenem for one or more of the test organisms at concentrations of 100 μM or less.

[5] = system: Escherichia coli expressing NDM-1 (CLB30005, CLB30016); format: cell-based; conditions: with imipenem 1 μg/ml, 95% inhibition of bacterial growth; for Escherichia coli MITC95: NDM-1 (CLB30016)
Procedure: as §4, §5, §6, §7, §8

[6] = system: Serratia marcescens expressing IMP-1 (CL5741); format: cell-based; conditions: with imipenem 1 μg/ml, 95% inhibition of bacterial growth; for Serratia marcescens MITC95: IMP-1 (CL5741)
Procedure: as §4, §5, §6, §7, §8

[7] = target: IMP-1 (Serratia marcescens, UniProt P52699); assay: biochemical; format: biochemical; conditions: CCF2-FA substrate, 2 hours at 25° C; read-out: IMP-1 IC50
Procedure: as §1, §2

[8] = target: NDM-1 (Klebsiella pneumoniae, UniProt C7C422); assay: biochemical; format: biochemical; conditions: CCF2-FA substrate, 2 hours at 25° C; read-out: NDM-1 IC50
Procedure: as §1, §2

Sequence of IMP-1 (P52699 whole entry, looked up, species assumed): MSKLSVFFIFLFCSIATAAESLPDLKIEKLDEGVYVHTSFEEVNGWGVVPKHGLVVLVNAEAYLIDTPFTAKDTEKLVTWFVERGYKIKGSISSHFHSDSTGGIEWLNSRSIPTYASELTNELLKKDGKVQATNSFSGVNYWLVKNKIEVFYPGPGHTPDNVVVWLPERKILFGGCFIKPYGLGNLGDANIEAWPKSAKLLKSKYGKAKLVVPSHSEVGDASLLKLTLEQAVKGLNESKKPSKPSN
Sequence of NDM-1 (C7C422 whole entry, looked up, species assumed): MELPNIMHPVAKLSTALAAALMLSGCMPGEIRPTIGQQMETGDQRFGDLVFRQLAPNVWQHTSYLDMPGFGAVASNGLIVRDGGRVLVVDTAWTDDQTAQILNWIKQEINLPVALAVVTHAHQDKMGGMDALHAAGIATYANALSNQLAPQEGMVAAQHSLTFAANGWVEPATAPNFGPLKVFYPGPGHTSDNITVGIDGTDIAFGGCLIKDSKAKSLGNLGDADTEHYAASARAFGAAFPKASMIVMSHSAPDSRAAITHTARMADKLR

Structure (SMILES) | IC50 [1] [nM] | P. aeruginosa expressing IMP-1, efflux+ (MB9798) MITC95 [2] [µM] | Efflux ratio [2] | P. aeruginosa expressing IMP-1, efflux− (MB9799) MITC95 [3] [µM] | Klebsiella pneumoniae expressing VIM-1 (IHMA599644) MITC95 [4] [µM] | Escherichia coli expressing NDM-1 (CLB30016) MITC95 [5] [µM] | Serratia marcescens expressing IMP-1 (CL5741) MITC95 [6] [µM] | IC50 [7] [nM] | IC50 [8] [nM] | Klebsiella pneumoniae MITC95 [4] [µM] | Escherichia coli MITC95 [5] [µM] | Serratia marcescens MITC95 [6] [µM]
NS(=O)(=O)c1c(S(=O)(=O)C2CNC2)ccc(-c2cnn3c2CCCC3)c1-c1nnn[nH]1.O=C(O)C(F)(F)F [Example 129, 3-((2-sulfamoyl-4-(4,5,6,7-tetrahydropyrazolo[1,5-a]pyridin-3-yl)-3-(1H-tetrazol-5-yl)phenyl)sulfonyl)azetidin-1-ium 2,2,2-trifluoroacetate] | 1.24 | 25 | 15.99 | 1.563 | 6.25 | 6.25 | 6.25 | 2.63 | 0.647 | – | – | –
Cn1ncc2cccc(-c3ccc(S(=O)(=O)C4CNC4)c(S(N)(=O)=O)c3-c3nnn[nH]3)c21.O=C(O)C(F)(F)F [Example 130, 3-((4-(1-methyl-1H-indazol-7-yl)-2-sulfamoyl-3-(1H-tetrazol-5-yl)phenyl)sulfonyl)azetidin-1-ium 2,2,2-trifluoroacetate] | 0.248 | 12.5 | 4.00 | 3.125 | 6.25 | 1.563 | 6.25 | 1.69 | 0.23 | – | – | –
Nc1nc2ccc(-c3ccc([S+]([O-])C4CCNCC4)c(S(N)(=O)=O)c3-c3nn[nH]n3)cc2[nH]1 (stereo not drawn) [Example 12, 3-(2-amino-3H-benzo[d]imidazol-5-yl)-6-(piperidin-4-ylsulfinyl)-2-(2H-tetrazol-5-yl)benzenesulfonamide] | 4.36 | 25 | 8.00 | 3.125 | 6.25 | 6.25 | 6.25 | 130 | 4.06 | – | – | –
NS(=O)(=O)c1c(S(=O)(=O)C2CNC2)ccc(-c2cccc3ncccc23)c1-c1nnn[nH]1.O=C(O)C(F)(F)F [Example 118, 3-((4-(quinolin-5-yl)-2-sulfamoyl-3-(1H-tetrazol-5-yl)phenyl)sulfonyl)azetidin-1-ium 2,2,2-trifluoroacetate] | 0.388 | 12.5 | 4.00 | 3.125 | 6.25 | 3.125 | 6.25 | 1.42 | 0.145 | – | – | –
NC[C@H](O)CS(=O)(=O)c1ccc(-c2cccc3sc(N)nc23)c(-c2nn[nH]n2)c1S(N)(=O)=O [Example 281, 6-((S)-3-amino-2-hydroxypropylsulfonyl)-3-(2-aminobenzo[d]thiazol-4-yl)-2-(2H-tetrazol-5-yl)benzenesulfonamide] | 0.134 | 0.3906 | – | 0.7813 | – | – | – | – | 0.0561 | 1.563 | 0.7813 | 0.7813
NC(=O)N1CC(S(=O)(=O)c2ccc(-c3ccc(NS(=O)(=O)C4CC4)cc3)c(-c3nn[nH]n3)c2S(N)(=O)=O)C1 [Example 246, 3-((4′-(cyclopropanesulfonamido)-3-sulfamoyl-2-(2H-tetrazol-5-yl)-[1,1′-biphenyl]-4-yl)sulfonyl)azetidine-1-carboxamide] | 0.139 | 12.5 | – | 3.125 | – | – | – | 0.103 | – | 25 | 50 | 12.5
NS(=O)(=O)c1c(S(=O)(=O)C2CNC2)ccc(-c2ccc(CO)nc2)c1-c1nnn[nH]1.O=C(O)C(F)(F)F [Example 111, 3-((4-(6-(hydroxymethyl)pyridin-3-yl)-2-sulfamoyl-3-(1H-tetrazol-5-yl)phenyl)sulfonyl)azetidin-1-ium 2,2,2-trifluoroacetate] | 0.96 | 6.25 | 4.00 | 1.563 | 6.25 | 3.125 | 3.125 | – | – | – | – | –
NS(=O)(=O)c1c(S(=O)(=O)C2CNC2)ccc(C2=CC3C=NNC3N=C2)c1-c1nnn[nH]1.O=C(O)C(F)(F)F (stereo not drawn) [Example 108, 3-((4-(3a,7a-dihydro-1H-pyrazolo[3,4-b]pyridin-5-yl)-2-sulfamoyl-3-(1H-tetrazol-5-yl)phenyl)sulfonyl)azetidin-1-ium 2,2,2-trifluoroacetate] | 0.612 | 25 | 15.99 | 1.563 | 6.25 | 6.25 | 3.125 | – | – | – | – | –
NCc1cncc(-c2ccc(S(=O)(=O)C3CNC3)c(S(N)(=O)=O)c2-c2nnn[nH]2)c1.O=C(O)C(F)(F)F [Example 107, 3-((4-(5-(aminomethyl)pyridin-3-yl)-2-sulfamoyl-3-(1H-tetrazol-5-yl)phenyl)sulfonyl)azetidin-1-ium 2,2,2-trifluoroacetate] | 28.3 | 12.5 | 4.00 | 3.125 | 3.125 | 1.563 | 6.25 | – | – | – | – | –
Nc1nc2cc(-c3ccc([S+]([O-])C4CNC4)c(S(N)(=O)=O)c3-c3nn[nH]n3)ccc2[nH]1 (stereo not drawn) [Example 11, 3-(2-amino-1H-benzo[d]imidazol-5-yl)-6-(azetidin-3-ylsulfinyl)-2-(2H-tetrazol-5-yl)benzenesulfonamide] | 1.86 | 3.125 | 8.00 | 0.3906 | 0.3906 | 0.3906 | 0.7813 | – | – | – | – | –
